Results on one molecule are retold here after BindingDB's records for doi:10.1021/jm00022a004 (H. Lundbeck, 1995).

The target in this assay is 5-hydroxytryptamine receptor 2A (Rattus norvegicus, UniProt P14842). The assay is described as follows: Binding affinity for 5-hydroxytryptamine 2A receptor, activity is expressed as IC50 values.
Sequence of 5-hydroxytryptamine receptor 2A (P14842 whole entry): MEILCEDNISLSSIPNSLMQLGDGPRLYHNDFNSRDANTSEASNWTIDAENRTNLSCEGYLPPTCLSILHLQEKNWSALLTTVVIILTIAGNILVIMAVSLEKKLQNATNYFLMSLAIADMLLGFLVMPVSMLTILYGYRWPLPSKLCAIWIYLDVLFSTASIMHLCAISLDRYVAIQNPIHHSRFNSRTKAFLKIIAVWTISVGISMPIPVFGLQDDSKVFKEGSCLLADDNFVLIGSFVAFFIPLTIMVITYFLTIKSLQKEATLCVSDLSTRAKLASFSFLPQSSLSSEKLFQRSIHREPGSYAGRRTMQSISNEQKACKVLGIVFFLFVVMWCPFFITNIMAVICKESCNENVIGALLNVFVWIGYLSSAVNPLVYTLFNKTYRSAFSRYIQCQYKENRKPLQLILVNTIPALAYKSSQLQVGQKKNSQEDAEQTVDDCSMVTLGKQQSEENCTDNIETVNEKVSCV

As usually defined, the IC50 is the concentration that gives 50% inhibition. A higher IC50 goes with a need for much substance. Turning to `CC1(C)CN(C2CC(c3ccc(F)cc3)c3ccc(Cl)cc32)CCN1` (stereo unspecified) [1-[6-Chloro-3-(4-fluoro-phenyl)-indan-1-yl]-3,3-dimethyl-piperazine], the 50% inhibitory concentration (IC50) is 3.2 nM.
